# Laboratory results taken from publication PMC10205801 (2023).
# Experiments:
# [1] = test system: F30-wild-type Beetroot / Wobble Beetroot heterodimer (RNA, aptamer) GGAGCCAUGUGUAUGUGGUCCGCGCCGGUUAGGCAGAGGUGGGUGGUGUGGAGGAGUAUCUGUCCGGCGCGGACCACAUACUCUGAUGAUCCUUCGGGAUCAUUCAUGGCUCC/GCGCCGGUUAGGCAGUGGUGGGUGGUGUGGAGGAGUAGCUGUCCGGCGC; experiment: fluorescence emission spectrum; conditions: 150 mM K+, 5 mM Mg2+; 20 mM MOPS-KOH pH 7
# [2] = test system: Beetroot (RNA, aptamer) GCGCCGGUUAGGCAGAGGUGGGUGGUGUGGAGGAGUAUCUGUCCGGCGC; experiment: fluorescence titration; conditions: 150 mM K+, 5 mM Mg2+; 20 mM MOPS-KOH pH 7.0; RNA titrated into dye
# [3] = test system: A16U + U38G (Wobble Beetroot) (RNA, aptamer) GCGCCGGUUAGGCAGUGGUGGGUGGUGUGGAGGAGUAGCUGUCCGGCGC; experiment: fluorescence titration; conditions: 150 mM K+, 5 mM Mg2+; 20 mM MOPS-KOH pH 7.0; RNA titrated into dye
# [4] = test system: A16U + U38A (RNA, aptamer) GCGCCGGUUAGGCAGUGGUGGGUGGUGUGGAGGAGUAACUGUCCGGCGC; experiment: fluorescence activation; conditions: 150 mM K+, 5 mM Mg2+; 20 mM MOPS-KOH pH 7.0; considerably less fluorescent than wild-type
# [5] = test system: A16C + U38G (RNA, aptamer) GCGCCGGUUAGGCAGCGGUGGGUGGUGUGGAGGAGUAGCUGUCCGGCGC; experiment: fluorescence activation; conditions: 150 mM K+, 5 mM Mg2+; 20 mM MOPS-KOH pH 7.0; considerably less fluorescent than wild-type
# [6] = test system: A31U (RNA, aptamer) GCGCCGGUUAGGCAGAGGUGGGUGGUGUGGUGGAGUAUCUGUCCGGCGC; experiment: fluorescence activation; conditions: 150 mM K+, 5 mM Mg2+; 20 mM MOPS-KOH pH 7.0; fluorescence reduced at least 50% relative to wild-type
# [7] = test system: A31C (RNA, aptamer) GCGCCGGUUAGGCAGAGGUGGGUGGUGUGGCGGAGUAUCUGUCCGGCGC; experiment: fluorescence activation; conditions: 150 mM K+, 5 mM Mg2+; 20 mM MOPS-KOH pH 7.0; fluorescence reduced at least 50% relative to wild-type
# [8] = test system: Beetroot (RNA, aptamer) GCGCCGGUUAGGCAGAGGUGGGUGGUGUGGAGGAGUAUCUGUCCGGCGC; experiment: ITC; conditions: 150 mM K+, 5 mM Mg2+; 20 mM MOPS-KOH pH 7.0, 25 °C (methods; text gives 21 °C); two equivalent sites per dimer; per site
# [9] = test system: J1/2 deletion (RNA, aptamer) GCGCCGGGCAGAGGUGGGUGGUGUGGAGGAGUAUCUGUCCGGCGC; experiment: fluorescence activation; conditions: 150 mM K+, 5 mM Mg2+; 20 mM MOPS-KOH pH 7.0; fluorescence comparable to wild-type
# [10] = test system: F30_Beetroot (RNA, aptamer) GGAGCCAUGUGUAUGUGGUCCGCGCCGGUUAGGCAGAGGUGGGUGGUGUGGAGGAGUAUCUGUCCGGCGCGGACCACAUACUCUGAUGAUCCUUCGGGAUCAUUCAUGGCUCC; experiment: fluorescence emission spectrum; conditions: 150 mM K+, 5 mM Mg2+; 20 mM MOPS-KOH pH 7
# [11] = test system: Beetroot (RNA, aptamer) GCGCCGGUUAGGCAGAGGUGGGUGGUGUGGAGGAGUAUCUGUCCGGCGC; experiment: co-crystal structure, 2.1 Å; fluorescence activation; conditions: K+
binding [1],Kd [2] [µM],Kd [3] [µM],binding [4],binding [5],binding [6],binding [7],Kd [8] [µM],binding [9],binding [10],binding [11],SMILES
yes,9.3 ± 1.5,7.6 ± 0.8,–,–,–,–,–,–,–,–,CN1C(=O)/C(=C/c2cc(F)c(O)c(F)c2)N=C1/C=N/O
yes,1.55,4.9 ± 1.2,yes,yes,yes,yes,0.47 ± 0.18,yes,yes,–,COC(=O)/C=C/C1=NC(=C\c2cc(F)c(O)c(F)c2)/C(=O)N1C
–,–,–,–,–,–,–,–,–,–,yes,Cc1ccc2c(c1)sc(-c1ccc(N(C)C)cc1)[n+]2C
